Drawing on patent US8642788B2, “Activators of executioner procaspases 3, 6 and 7” (The Regents of the University of California, priority 2008, dated 2014), this text covers EC50 for 21 compounds.

Common to all, as to type: biochemical
Experiment [1] has as its target T1, procaspase-3 (Homo sapiens, UniProt P42574).
T1 construct: His6 (C); made in house; host or cells: E. coli BL21(DE3)RP, pET-23b
T1 sequence (P42574 1-277): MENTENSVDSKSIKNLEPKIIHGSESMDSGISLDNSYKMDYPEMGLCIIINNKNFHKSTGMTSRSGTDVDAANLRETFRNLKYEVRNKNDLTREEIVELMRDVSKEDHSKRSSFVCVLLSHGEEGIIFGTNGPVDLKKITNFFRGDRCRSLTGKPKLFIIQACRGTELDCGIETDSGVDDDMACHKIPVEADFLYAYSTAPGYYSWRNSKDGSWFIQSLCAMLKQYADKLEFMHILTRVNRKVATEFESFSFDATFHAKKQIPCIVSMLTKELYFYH
Nature of the experiment: Executioner procaspase-3 activation assay (Ac-DEVD-AFC fluorogenic substrate). In short, it runs like this:
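Procaspase-3 at 100 nM was incubated with activating compounds (100 nM to 100 uM) in 50 mM HEPES pH 7.4, 50 mM KCl, 1 mM DTT and 0.01% Triton-X100, the detergent limiting aggregation artefacts. Protein, substrate and inhibitor were kept as frozen aliquots and thawed just before use.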

Experiment [2] has as its target T2, procaspase-7 (Homo sapiens, UniProt P55210).
T2 construct: His6 (C); made in house; host or cells: E. coli BL21(DE3)RP, pET-21b
T2 sequence (P55210 1-303): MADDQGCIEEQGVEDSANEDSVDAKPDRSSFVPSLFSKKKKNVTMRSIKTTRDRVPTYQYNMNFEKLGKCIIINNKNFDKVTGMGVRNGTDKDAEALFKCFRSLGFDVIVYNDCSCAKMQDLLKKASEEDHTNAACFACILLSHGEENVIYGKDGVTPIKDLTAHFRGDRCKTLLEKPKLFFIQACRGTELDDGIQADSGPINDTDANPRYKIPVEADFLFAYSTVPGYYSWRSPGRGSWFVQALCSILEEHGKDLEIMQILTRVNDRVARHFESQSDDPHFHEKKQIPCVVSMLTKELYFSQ
The experiment can be described thus: Executioner procaspase-7 activation assay (Ac-DEVD-AFC fluorogenic substrate). The note with it: incubation with compound for 5 h at 37° C.; 100 nM procaspase. In short, it runs like this: (§1)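 Procaspase at 100 nM incubated with compound (100 nM–100 μM) in 50 mM HEPES pH 7.4, KCl, DTT, 0.01% Triton X-100, 3% DMSO, 37 °C for 5 h; then 25 μM Ac-DEVD-AFC (procaspase-7) or Ac-VEID-AFC (procaspase-6), kinetic fluorescence 30 min (ex 365/em 495); EC50 reported.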

In experiment [3] the target is T3, procaspase-6 (Homo sapiens, UniProt P55212).
T3 sequence (P55212 1-293): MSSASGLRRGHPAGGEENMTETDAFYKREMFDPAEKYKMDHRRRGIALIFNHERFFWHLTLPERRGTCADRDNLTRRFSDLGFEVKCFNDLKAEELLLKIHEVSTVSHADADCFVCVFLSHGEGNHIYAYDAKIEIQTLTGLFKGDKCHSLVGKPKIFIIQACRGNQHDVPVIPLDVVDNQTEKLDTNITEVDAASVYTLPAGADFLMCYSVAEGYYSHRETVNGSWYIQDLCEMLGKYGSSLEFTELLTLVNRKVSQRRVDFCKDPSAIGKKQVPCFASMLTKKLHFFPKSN
The experiment can be described thus: Executioner procaspase-6 activation assay (Ac-VEID-AFC fluorogenic substrate). As to conditions: incubation with compound for 5 h at 37° C.; 100 nM procaspase. Put shortly: as §1

[4] abbreviates: incubation with compound for 5 h at 37° C., 100 nM procaspase, read-out: Procaspase Activation 3.

pEC50: −log10 of the molar value. Read-outs that look alike come from different tables or passages of the source.

Turning to `COc1cccc2cc(C(=O)Nc3cccc(-c4ccc(C#N)c(F)c4)c3)c(=O)oc12` [compound 144, 8-Methoxy-2-oxo-2H-chromene-3-carboxylic acid (4′-cyano-3′-fluoro-biphenyl-3-yl)-amide], the pEC50 in experiment [1] (setting [4]), in experiment [2] and in experiment [3] was below 4.00 throughout.

In the case of `COc1ccc(-c2cccc(NC(=O)c3cc4cccc(O)c4oc3=O)c2)cn1` [compound 129, 8-Hydroxy-2-oxo-2H-chromene-3-carboxylic acid [3-(6-methoxy-pyridin-3-yl)-phenyl]-amide], the pEC50 in experiment [1] (setting [4]), in experiment [2] and in experiment [3] was below 4.00 throughout.

Turning to `O=C(Nc1cccc(-c2cc(F)cc(F)c2)c1)c1cc2cccc(O)c2oc1=O` [compound 177, 8-Hydroxy-2-oxo-2H-chromene-3-carboxylic acid (3′,5′-difluoro-biphenyl-3-yl)-amide], the pEC50 in experiment [1] (setting [4]), in experiment [2] and in experiment [3] was below 4.00 throughout.

As for `O=C(Nc1cccc(-c2cnn(Cc3ccccc3)c2)c1)c1cc2cccc(O)c2oc1=O` [compound 169, 8-Hydroxy-2-oxo-2H-chromene-3-carboxylic acid [3-(1-benzyl-1H-pyrazol-4-yl)-phenyl]-amide], the pEC50 in experiment [1] (setting [4]), in experiment [2] and in experiment [3] was below 4.00 throughout.

For `COc1cccc2cc(C(=O)Nc3cccc(-c4ccccc4S(=O)(=O)N4CCOCC4)c3)c(=O)oc12` [compound 99, 8-Methoxy-2-oxo-2H-chromene-3-carboxylic acid (2′-(Morpholine-4-sulfonyl)-biphenyl-3-yl)-amide], the pEC50 in experiment [1] (setting [4]), in experiment [2] and in experiment [3] was below 4.00 throughout.

Regarding `O=C(Nc1cccc(-c2ccc3[nH]ccc3c2)c1)c1cc2cccc(O)c2oc1=O` [compound 92, 8-Hydroxy-2-oxo-2H-chromene-3-carboxylic acid (3-(1H-Indol-5-yl)-phenyl)-amide], the pEC50 in experiment [1], in experiment [2] and in experiment [3] was below 4.00 in each case.

In the case of `CCOc1ccc(-c2cccc(NC(=O)c3cc4cccc(OC(F)(F)F)c4oc3=O)c2)cc1C` [compound 67, 8-Trifluoromethoxy-2-oxo-2H-chromene-3-carboxylic acid (4′-ethoxy-3′-methyl-biphenyl-3-yl)-amide], the pEC50 in experiment [1] (setting [4]), in experiment [2] and in experiment [3] was below 4.00 in each case.

For `COc1cccc2cc(C(=O)Nc3cccc(-c4cncnc4)c3)c(=O)oc12` [compound 136, 8-Methoxy-2-oxo-2H-chromene-3-carboxylic acid (3-pyrimidin-5-yl-phenyl)-amide], the pEC50 in experiment [1] (setting [4]) is 3.70 to 4.30; in experiment [2], below 4.00; in experiment [3], 3.70 to 4.30.

Turning to `O=C(Nc1cccc(-c2ccc3c(c2)CCO3)c1)c1cc2cccc(OC(F)(F)F)c2oc1=O` [compound 76, 8-Trifluoromethoxy-2-oxo-2H-chromene-3-carboxylic acid [3-(2,3-dihydro-benzofuran-5-yl)-phenyl]-amide], the pEC50 in experiment [1] (setting [4]), in experiment [2] and in experiment [3] was below 4.00 in each case.

For the compound `COc1cccc2cc(C(=O)Nc3cccc(-c4ccc(O)nc4)c3)c(=O)oc12` [compound 140, 8-Methoxy-2-oxo-2H-chromene-3-carboxylic acid [3-(6-hydroxy-pyridin-3-yl)-phenyl]-amide], the pEC50 in experiment [1] (setting [4]), in experiment [2] and in experiment [3] was below 4.00 in each case.

For the compound `COc1cccc2cc(C(=O)Nc3cccc(-c4cccc5[nH]ccc45)c3)c(=O)oc12` [compound 168, 8-Methoxy-2-oxo-2H-chromene-3-carboxylic acid [3-(1H-indol-4-yl)-phenyl]-amide], the pEC50 in experiment [1], in experiment [2] and in experiment [3] was below 4.00 throughout.

For the compound `N#Cc1ccc(-c2cccc(NC(=O)c3cc4cccc(O)c4oc3=O)c2)cc1F` [compound 143, 8-Hydroxy-2-oxo-2H-chromene-3-carboxylic acid (4′-cyano-3′-fluoro-biphenyl-3-yl)-amide], the pEC50 in experiment [1] (setting [4]), in experiment [2] and in experiment [3] was below 4.00 throughout.

Consider `COc1cccc2cc(C(=O)Nc3cccc(-c4ccc5[nH]c(=O)[nH]c5c4)c3)c(=O)oc12` [compound 158, 8-Methoxy-2-oxo-2H-chromene-3-carboxylic acid [3-(2-oxo-2,3-dihydro-1H-benzoimidazol-5-yl)-phenyl]-amide], for which the pEC50 in experiment [1] (setting [4]), in experiment [2] and in experiment [3] was below 4.00 each time.

For the compound `N#Cc1cccc(-c2cccc(NC(=O)c3cc4cccc(O)c4oc3=O)c2)c1` [compound 147, 8-Hydroxy-2-oxo-2H-chromene-3-carboxylic acid (3′-cyano-biphenyl-3-yl)-amide], the pEC50 in experiment [1] (setting [4]), in experiment [2] and in experiment [3] was below 4.00 each time.

Consider `CC(=O)Nc1ccccc1-c1cccc(NC(=O)c2cc3cccc(O)c3oc2=O)c1` [compound 95, 8-Hydroxy-2-oxo-2H-chromene-3-carboxylic acid (2′-acetylamino-biphenyl-3-yl)-amide], for which the pEC50 in experiment [1] (setting [4]), in experiment [2] and in experiment [3] was below 4.00 each time.

Regarding `O=C(Nc1cccc(-c2ccc3[nH]c(=O)[nH]c3c2)c1)c1cc2cccc(O)c2oc1=O` [compound 157, 8-Hydroxy-2-oxo-2H-chromene-3-carboxylic acid [3-(2-oxo-2,3-dihydro-1H-benzoimidazol-5-yl)-phenyl]-amide], the pEC50 in experiment [1] (setting [4]), in experiment [2] and in experiment [3] was below 4.00 in each case.

As for `COc1cccc2cc(C(=O)Nc3cccc(-c4ccc5cc[nH]c5c4)c3)c(=O)oc12` [compound 166, 8-Methoxy-2-oxo-2H-chromene-3-carboxylic acid [3-(1H-indol-6-yl)-phenyl]-amide], the pEC50 in experiment [1], in experiment [2] and in experiment [3] was below 4.00 throughout.

On to `COc1cccc2cc(C(=O)Nc3cccc(-c4ccccc4C#N)c3)c(=O)oc12` [compound 90, 8-Methoxy-2-oxo-2H-chromene-3-carboxylic acid (2′-cyano-biphenyl-3-yl)-amide], for which the pEC50 in experiment [1] (setting [4]), in experiment [2] and in experiment [3] was below 4.00 throughout.

As for `O=C(Nc1cccc(-c2cnc3ccccc3c2)c1)c1cc2cccc(OC(F)(F)F)c2oc1=O` [compound 85, 8-Trifluoromethoxy-2-oxo-2H-chromene-3-carboxylic acid [3-Quinolin-3-yl-phenyl]-amide], the pEC50 in experiment [1] (setting [4]), in experiment [2] and in experiment [3] was below 4.00 each time.

On to `COc1cccc2cc(C(=O)Nc3cccc(-c4cccn4C(=O)OC(C)(C)C)c3)c(=O)oc12` [compound 174, 2-{3-[(8-Methoxy-2-oxo-2H-chromene-3-carbonyl)-amino]-phenyl}-pyrrole-1-carboxylic acid tert-butyl ester], for which the pEC50 in experiment [1] (setting [4]), in experiment [2] and in experiment [3] was below 4.00 in each case.

With `Cc1noc(C)c1-c1cccc(NC(=O)c2cc3cccc(O)c3oc2=O)c1` [compound 153, 8-Hydroxy-2-oxo-2H-chromene-3-carboxylic acid [3-(3,5-dimethyl-isoxazol-4-yl)-phenyl]-amide], the results for the pEC50 in experiment [1] (setting [4]), in experiment [2] and in experiment [3] were 4.30 to 5.00, 4.30 to 5.00 and below 4.00, respectively.
